# Measurements: patent publication US5108754A, “Orthomolecular method of treating sickle cell disease” (priority 1991, dated 1992)
# Where “and” joins values, the source holds several entries; their conditions need not be identical. Equal values may be shown once.
# Tests used:
# [1] = prior-art antisickling agent; cited from earlier work
# [2] = system: rats
# Protocol: The compound prepared according to Example 1 was subjected to a toxicity study in accordance with techniques well-known in the art. The study was conducted on rats over a three-day testing period.
# [3] = second day, 0.01% dosage, individual rats #A-#D, listed as active agent
Compound,toxicity [1],"rats killed after administration of the drug formulation ([2]; rats, three days, 0.001%, 0.01%, 0.1% of rat weight on days 1, 2, 3)","toxicity ([2]; rats, three-day study, 0.001%, 0.01%, 0.1% of rat weight)","Body Fluid Concentraton 0.01% [2, 3]","Weight After [2, 3]","Weight Before [2, 3]","Weight Change [2, 3]"
N#CO [potassium cyanate],rather high toxicity,–,–,–,–,–,–
"Cc1c(C)c2c(c(C)c1OC(=O)C(N)CC[S+](C)CC1OC(n3cnc4c(N)ncnc43)C(O)C1O)CCC(C)(CCCC(C)CCCC(C)CCCC(C)C)O2.[I-] (stereo not drawn) [Example 1, α-(S-adenosylmethionine)-O-tocopherol]",–,none of the rats tested were killed,substantially non-toxic,0.14 and 0.07,28.5 grams and 26.4 grams and 29.5 grams,28.3 grams and 26.3 grams and 29.4 grams,0.2 grams and 0.1 grams
